Data on 6 compounds can be found in PubChem BioAssay (NCI).

Values joined by “and” are separate entries in the source; they are usually repeats but may differ in a detail not shown here. Equal entries are not always repeated.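 Values below derive from 48-hour exposures of cells grown in 96-well plates, with endpoints linearly interpolated between the two concentrations bracketing the appropriate inhibition level. GI50 marks 50% less growth. TGI is the concentration that stops growth completely.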 A value given as a limit tells only on which side of the number the result lay.

Test systems include A498 renal; A549 NSCLC; COLO 205 colon; HOP-62 NSCLC; HS 578T breast; HT29 colon; K-562 leukemia; MCF7 breast; NCI/ADR-RES ovarian; SK-MEL-28 melanoma.
Holding throughout (assay): NCI-60 cell line screen, 48 h

On to `COc1ccc(-c2c3c(n(C4OC(COC(C)=O)C(OC(C)=O)C(OC(C)=O)C4OC(C)=O)c(=S)c2C#N)CC(C)(C)CC3=O)cc1` (configuration not stated), for which the GI50 in the experiment with A498 renal is 42.1 µM and > 100 µM; in the experiment on K-562 leukemia it was 18.2 µM and 47.5 µM; with NCI/ADR-RES ovarian it was 41.6 µM and > 100 µM; in the experiment with SK-MEL-28 melanoma, 42 µM and > 100 µM. Moreover, the TGI in the experiment with A498 renal, with A549 NSCLC, in the experiment on COLO 205 colon, in the experiment with HOP-62 NSCLC, with HS 578T breast and with HT29 colon was more than 100 µM each time. The TGI with K-562 leukemia was 39.9 µM and > 100 µM; in the experiment on MCF7 breast, more than 100 µM; in the experiment with NCI/ADR-RES ovarian, more than 100 µM; with SK-MEL-28 melanoma, more than 100 µM.
As for `CN(Cc1cc(Cl)cc(Cl)c1)CC(C(=O)c1ccccc1)c1ccccc1` (configuration not stated), the TGI in the experiment with A498 renal is 64.8 µM; in the experiment on A549 NSCLC, more than 100 µM; in the experiment with COLO 205 colon, 16.3 µM; in the experiment on HOP-62 NSCLC, 71.3 µM; in the experiment on HS 578T breast it was more than 57.7 µM; in the experiment on HT29 colon, 7.91 µM. Moreover, the TGI in the experiment with K-562 leukemia is more than 100 µM; in the experiment on MCF7 breast it was more than 44.1 µM; in the experiment on NCI/ADR-RES ovarian, 5.45 µM; with SK-MEL-28 melanoma, 9.8 µM.
Take `COc1nc(N)nc2c1ncn2C1OC(CO)C(O)C1O` (configuration not stated): the GI50 in the experiment on A498 renal was more than 5000 µM; in the experiment with A549 NSCLC, 701 µM; in the experiment on COLO 205 colon it was 520 µM; in the experiment on HOP-62 NSCLC, 2010 µM; in the experiment with HS 578T breast it was more than 5000 µM; in the experiment on HT29 colon, more than 5000 µM. Also, the GI50 in the experiment with K-562 leukemia is more than 5000 µM; with MCF7 breast, 3800 µM; in the experiment on NCI/ADR-RES ovarian, more than 5000 µM; in the experiment with SK-MEL-28 melanoma it was 2280 µM. In addition, the TGI in the experiment with A498 renal is more than 5000 µM; with A549 NSCLC, more than 5000 µM; with COLO 205 colon, 2250 µM; in the experiment on HOP-62 NSCLC it was more than 5000 µM; in the experiment with HS 578T breast, more than 5000 µM; with HT29 colon it was more than 5000 µM. For the same compound, the TGI in the experiment on K-562 leukemia, with MCF7 breast, in the experiment on NCI/ADR-RES ovarian and in the experiment on SK-MEL-28 melanoma was more than 5000 µM each time.
As to `Cc1nc(N2CCC3(CC2)CO[C@@H](C)[C@H]3N)c(CO)nc1Sc1ccnc(N)c1Cl`, the GI50 was 0.657 µM in the experiment with A498 renal; more than 100 µM in the experiment on A549 NSCLC; more than 73.4 µM with COLO 205 colon; 28 µM with HOP-62 NSCLC; 11 µM in the experiment with HS 578T breast; more than 100 µM in the experiment on HT29 colon. For the same compound, the GI50 with K-562 leukemia is 0.305 µM; in the experiment with MCF7 breast it was more than 92.4 µM; in the experiment with NCI/ADR-RES ovarian it was 47.3 µM; in the experiment with SK-MEL-28 melanoma, more than 100 µM. Besides, the TGI in the experiment on A498 renal was more than 100 µM; with A549 NSCLC it was more than 100 µM; in the experiment on COLO 205 colon, more than 100 µM; in the experiment on HOP-62 NSCLC, more than 100 µM; in the experiment on HS 578T breast it was 99.1 µM; in the experiment on HT29 colon, more than 100 µM. Besides, the TGI in the experiment with K-562 leukemia, with MCF7 breast, in the experiment on NCI/ADR-RES ovarian and with SK-MEL-28 melanoma was more than 100 µM each time.
`O=C(/C=C/c1ccccc1)n1c(-c2ccc(Cl)cc2)nc2ccccc21`: the GI50 is 1.17 µM in the experiment on A498 renal; 1.89 µM with A549 NSCLC; 1.41 µM in the experiment on COLO 205 colon; 2.72 µM in the experiment with HOP-62 NSCLC; 2.57 µM in the experiment on HS 578T breast; 1.51 µM in the experiment on HT29 colon. Moreover, the GI50 in the experiment with K-562 leukemia is 2.09 µM; with MCF7 breast, 1.01 µM; with NCI/ADR-RES ovarian, 1.49 µM; in the experiment with SK-MEL-28 melanoma it was 1.49 µM. Moreover, the TGI amounted to 2.56 µM with A498 renal; 7.3 µM in the experiment with A549 NSCLC; 2.78 µM in the experiment with COLO 205 colon; 5.17 µM with HOP-62 NSCLC; 17.9 µM in the experiment on HS 578T breast; 3.71 µM with HT29 colon. For the same compound, the TGI in the experiment on K-562 leukemia amounted to 11.8 µM; in the experiment on MCF7 breast it was 9.92 µM; in the experiment on NCI/ADR-RES ovarian it was 61.3 µM; in the experiment on SK-MEL-28 melanoma, 3.22 µM.
For `COc1ccc2c(c1)CC[C@H](O)/C2=C/c1cc(OC)c(OC)c(OC)c1`, the GI50 was 0.0467 µM with A498 renal; 0.245 µM in the experiment on A549 NSCLC; 0.106 µM with COLO 205 colon; 0.0876 µM in the experiment on HOP-62 NSCLC; 0.101 µM in the experiment with HS 578T breast; 0.107 µM with HT29 colon. Moreover, the GI50 was 0.0492 µM in the experiment on K-562 leukemia, 0.0379 µM in the experiment with MCF7 breast, 0.0639 µM in the experiment on NCI/ADR-RES ovarian and 3.9 µM in the experiment with SK-MEL-28 melanoma. For the same compound, the TGI was more than 100 µM in the experiment on A549 NSCLC; 0.639 µM with COLO 205 colon; more than 100 µM in the experiment with HOP-62 NSCLC; more than 100 µM in the experiment on HS 578T breast; more than 100 µM in the experiment with HT29 colon; more than 100 µM in the experiment on K-562 leukemia. The TGI in the experiment on MCF7 breast and in the experiment on SK-MEL-28 melanoma was more than 100 µM in each case.
